Key:
Leishmania donovani [1] = experiment: GSK_TCAKS: pIC50 Leishmania donovani viability assay using fluorescence intensity. Assay plates (1536-well) were prepared by adding 30nL per well of compound. For single shot assay, the final compound concentration was 5uM. […] Briefly, eGFP LdBOB axenic amastigotes were harvested, fixed and counted in a CASY cell counter (Roche-Applied Science). A final concentration of 1.5 * 10^5 cells per well were prepared in amastigote media containing 500 U/mL penicillin/streptomycin (Invitrogen) and 6uL was dispensed to each experimental well using a Multidrop Combi dispenser (Thermo Scientific). 6uL of assay media was dispensed to control columns used as reference for 100% compound response. Following incubation for 72 h at 37C, 5% CO2, 2 uL of resazurin was added to each well at a final concentration of 0.5 mM in phosphate buffered saline (PBS) with IGEPAL (Sigma-Aldrich), 0.05% (v/v).; format: functional, organism-based
Trypanosoma cruzi [2] = experiment: (§1) GSK_TCAKS: pIC50 Trypanosoma cruzi Imaging: Infected Cells. […] Cells were then washed once with PBS before infection. T. cruzi trypomastigotes, collected at days 5 to 8 after infection from LLC-MK2 parasite infected cultures, were allowed to swim out for 4h at 37C from a centrifuged pellet (2,500 rpm/10 min/room temperature). Trypomastigotes were then collected and counted in a CASY Cell Counter. Trypomastigotes, in supplemented DMEM, were added to H9c2 cultures in a multiplicity of infection of 1 and incubated for 18 h. Cells were washed once with PBS before incubation of the infected H9c2 monolayer with trypsin (Life-Technologies) to detach cells from the flask. Cells were counted in a CASY Cell Counter using a 150 um capillary and their density set at 5 * 10^4 cells per mL in supplemented assay DMEM. Infected H9c2 were dispensed into 384-well poly-lysine coated assay plates at 50uL per well using a Multidrop Combi dispenser. After seeding them, the plates were incubated at 37C, 5% CO2 for 72h. Cultures were then fixed and stained by addition of 50 uL of a solution containing 8% formaldehyde and 4 uM DRAQ5 DNA dye (BioStatus, UK) per well. […] Five images were collected per well for reliable statistical analysis. Automated image analysis was performed with a script developed on Acapella High Content Imaging and Analysis Software (PerkinElmer). Output: percentage of infected cells per well as a second infection marker.; format: functional, organism-based, Rattus norvegicus; conditions: H9c2, 4 h
[3] = GSK_TCAKS: pIC50 HepG2 human cell line viability assay using luminiscence. […] Seeding density was checked to ensure that new mono-layers were not more than 50% confluent at the time of harvesting. Cell suspension was added to 500 mL of the same medium at a final density of 1.2 * 10^5 cells/mL. This cell suspension was dispensed (25 uL, 3000 cells per well) into 384-well clear-bottom plates using a Multidrop Combi dispenser. Prior to addition of the cell suspension, the screening compounds (250 nL) were pre-dispensed into the plates with an Echo liquid handler. Plates were incubated for 48 h at 37C, 5% CO2. After incubation, plates equilibrated at room temperature for 30 min before proceeding to develop the luminescent signal. The signal developer, CellTiter-Glo Reagent, was allowed to equilibrate at room temperature for 30 min and added to the plates (25uL per well) using a Multidrop Combi dispenser. Plates were left for 10 min at room temperature for stabilization and then read using a ViewLux.; format: toxicity, cell-based
Trypanosoma cruzi [4] = experiment: as §1, with “H2C9” for “Trypanosoma cruzi”, “H9c2 Host Cardiomyocytes.” for “Infected Cells.”, “Number” for “percentage”, “H9c2 Host Cardiomyocytes nuclei to determine drug-related cytotoxicity.” for “infected cells per well as a second infection marker.”; format: functional, organism-based, Rattus norvegicus; conditions: H9c2, 4 h
Trypanosoma cruzi [5] = experiment: GSK_TCAKS: pIC50 Trypanosoma cruzi viability assay using beta-GAL activity. This assay was run at single shot at 5uM compound concentration per well. The biological reagents consisted of NIH-3T3 host cells and trypomastigotes parasitic cells; both cell types were set to a 3.3 * 10^5 cells/mL dilution in assay DMEM by means of a CASY cell counter device using a 60um capillary. 6 uL of the mixture were dispensed per well (about 1 * 10^3 host-cells and 1 * 10^3 parasites) with a Multidrop Combi dispenser. […] In all wells, the percentage of DMSO never exceeded 0.5%. Plates incubated for four days at 37C, 5% CO2. The substrate used for the assay fluorescence intensity (FLINT) readout was resorufin-beta-D-galactopiranoside (Sigma-Aldrich) at 5uM per well. It was diluted in PBS supplemented with the soft detergent Igepal (Fluka).; format: functional, organism-based, Mus musculus; conditions: Tulahuen, NIH3T3
Trypanosoma cruzi [6] = experiment: GSK_TCAKS: pIC50 Trypanosoma cruzi Imaging: Amastigotes/Cell. […] Cells were then washed once with PBS before infection. T. cruzi trypomastigotes, collected at days 5 to 8 after infection from LLC-MK2 parasite infected cultures, were allowed to swim out for 4h at 37C from a centrifuged pellet (2,500 rpm/10 min/room temperature). Trypomastigotes were then collected and counted in a CASY Cell Counter. Trypomastigotes, in supplemented DMEM, were added to H9c2 cultures in a multiplicity of infection of 1 and incubated for 18 h. Cells were washed once with PBS before incubation of the infected H9c2 monolayer with trypsin (Life-Technologies) to detach cells from the flask. Cells were counted in a CASY Cell Counter using a 150 um capillary and their density set at 5 * 10^4 cells per mL in supplemented assay DMEM. Infected H9c2 were dispensed into 384-well poly-lysine coated assay plates at 50uL per well using a Multidrop Combi dispenser. After seeding them, the plates were incubated at 37C, 5% CO2 for 72h. Cultures were then fixed and stained by addition of 50 uL of a solution containing 8% formaldehyde and 4 uM DRAQ5 DNA dye (BioStatus, UK) per well. […] Five images were collected per well for reliable statistical analysis. Automated image analysis was performed with a script developed on Acapella High Content Imaging and Analysis Software (PerkinElmer). Output: number of amastigotes per cell as infection level measurement.; format: functional, organism-based, Rattus norvegicus; conditions: H9c2, 4 h
Leishmania donovani [7] = experiment: GSK_TCAKS: pIC50 Leishmania donovani Imaging: Infected Macrophages. Assay plates (384-well) were prepared by adding 250nL of compound to each well. For single shot assay, the final compound concentration was 5 uM. […] Automated image analysis was performed with a script developed on Acapella High Content Imaging and Analysis Software (PerkinElmer). Output: Percent of infected macrophage cells were reported for each well.; format: functional, organism-based, Homo sapiens; conditions: THP-1
[8] = system: Trypanosoma brucei brucei; experiment: GSK_TCAKS: pIC50 Trypanosoma brucei viability assay using luminiscence. Assay plates (1536-well) were prepared. T. brucei cultures were harvested and counted in a CASY cell counter. A parasite suspension was prepared at a final concentration of 5 * 10^4 cells/mL in complete HMI9 medium and 6uL was dispensed to all wells containing compounds using a Multidrop Combi dispenser. 6uL of HMI9 media with 0.4% DMSO were dispensed to control columns. Plates were incubated for 24 h at 37C, 5% CO2 then tempered for 10 min at room temperature. ATP content was quantified by adding 4 uL of CellTiter-Glo Reagent (Promega) according to the manufacturer's instructions. Luminescence was measured using a ViewLux.; format: functional, organism-based; conditions: Lister 427, CASY
[9] = molecular target: Sterol 14-alpha demethylase (Trypanosoma cruzi (strain CL Brener), UniProt Q7Z1V1); experiment: GSK_TCAKS: pIC50 CYP51 from Trypanosoma cruzi.; format: functional
Sequence of Sterol 14-alpha demethylase (Q7Z1V1 whole entry): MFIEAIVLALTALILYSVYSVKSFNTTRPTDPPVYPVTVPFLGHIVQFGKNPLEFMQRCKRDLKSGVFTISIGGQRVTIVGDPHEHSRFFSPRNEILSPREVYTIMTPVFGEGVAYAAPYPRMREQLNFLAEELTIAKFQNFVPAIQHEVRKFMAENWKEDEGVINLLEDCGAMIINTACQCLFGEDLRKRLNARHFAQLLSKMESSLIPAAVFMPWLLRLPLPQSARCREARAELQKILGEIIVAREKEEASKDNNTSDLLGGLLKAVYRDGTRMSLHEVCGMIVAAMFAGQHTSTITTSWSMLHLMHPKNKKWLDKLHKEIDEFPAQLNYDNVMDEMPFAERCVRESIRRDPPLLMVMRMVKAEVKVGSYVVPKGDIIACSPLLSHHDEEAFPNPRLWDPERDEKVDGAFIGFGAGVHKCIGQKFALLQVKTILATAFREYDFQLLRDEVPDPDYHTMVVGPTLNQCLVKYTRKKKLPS

Leishmania donovani [10] = experiment: GSK_TCAKS: pIC50 Leishmania donovani Imaging: Amastigotes/Macrophages. Assay plates (384-well) were prepared by adding 250nL of compound to each well. For single shot assay, the final compound concentration was 5 uM. […] Automated image analysis was performed with a script developed on Acapella High Content Imaging and Analysis Software (PerkinElmer). Output: Average number of amastigotes per macrophage cell were reported for each well.; format: functional, organism-based, Homo sapiens; conditions: THP-1
Leishmania donovani [11] = experiment: GSK_TCAKS: pIC50 Leishmania donovani Imaging: THP-1 Host Macrophages. Assay plates (384-well) were prepared by adding 250nL of compound to each well. For single shot assay, the final compound concentration was 5 uM. […] Automated image analysis was performed with a script developed on Acapella High Content Imaging and Analysis Software (PerkinElmer). Output: THP-1 cell count were reported for each well.; format: functional, organism-based, Homo sapiens
[12] = system: Trypanosoma brucei brucei; experiment: GSK_TCAKS: pIC50 Trypanosoma brucei viability assay using fluorescence intensity. Assay plates (1536-well) were prepared by dispensing 25nL of compound solution per well using an Echo acoustic dispenser (Labcyte).; format: functional, organism-based; conditions: Lister 427, 2 h

| Compound | IC50 (Leishmania donovani [1]) [µM] | IC50 (Trypanosoma cruzi [2]) [µM] | IC50 at 48 h [3] [µM] | IC50 (Trypanosoma cruzi [4]) [µM] | IC50 (Trypanosoma cruzi [5]) [µM] | IC50 (Trypanosoma cruzi [6]) [µM] | IC50 (Leishmania donovani [7]) [µM] | IC50 [8] [µM] | IC50 [9] [µM] | IC50 (Leishmania donovani [10]) [µM] | IC50 (Leishmania donovani [11]) [µM] | IC50 [12] [µM] |
| --- | --- | --- | --- | --- | --- | --- | --- | --- | --- | --- | --- | --- |
| Cc1ccccc1NS(=O)(=O)c1ccc2[nH]cc(C(=O)NC3CCCC(C)C3C)c(=O)c2c1 (configuration not stated) | 25.1 | 6.31 | 39.8 | 6.31 | 5.01 | 3.16 | 15.8 | 0.631 | 5.01 | 15.8 | 12.6 | 0.316 |
| COCCn1cnc2cc(NC(=O)C3CCCCC3)cc(C(=O)N3CCc4sccc4C3)c21 | > 50.1 | 31.6 | > 100 | > 50.1 | 20 | 20 | > 50.1 | 1 | 50.1 | > 50.1 | > 50.1 | 0.794 |
| CCC(=O)Nc1ccccc1C(=O)Nc1ccccn1 | > 50.1 | > 50.1 | > 100 | > 50.1 | > 50.1 | > 50.1 | > 50.1 | 0.398 | > 100 | > 50.1 | > 50.1 | 0.316 |
| COc1ncc(-c2ccc3nccc(-c4ccncc4)c3c2)cc1NS(=O)(=O)C1CC1 | 1.26 | 2.51 | > 100 | 0.794 | 0.316 | 2 | 1.26 | 0.398 | 7.94 | 0.316 | 1 | 0.2 |
| Cc1nc(N2CC(C)OC(C)C2)sc1C(=O)Nc1ccc2c(c1)OCO2 (configuration not stated) | 6.31 | 3.98 | > 100 | > 50.1 | 2 | 2.51 | 7.94 | > 39.8 | 39.8 | 3.16 | > 50.1 | 39.8 |
| N#Cc1cccc(Cc2cc(Nc3cc(C4CC4)[nH]n3)nc(N3CC[C@H]3C(N)=O)n2)c1 | 0.631 | 3.98 | > 100 | 0.00398 | 0.398 | 1 | 0.2 | 0.0631 | 50.1 | 0.0794 | 0.0316 | 0.0398 |
| COc1ccc(C(=O)Nc2c(C)nn(COc3cccc(C(F)(F)F)c3)c2C)cc1 | > 50.1 | 39.8 | > 100 | > 50.1 | 25.1 | 25.1 | > 50.1 | 0.794 | 12.6 | > 50.1 | 31.6 | 0.794 |
| Cc1cc2nc(N3CC[C@H]3C(N)=O)nc(Nc3cc(C4CC4)[nH]n3)c2s1 | 0.794 | 7.94 | > 100 | 0.501 | 6.31 | 3.98 | 2 | 0.126 | > 100 | 1.26 | 0.794 | 0.0794 |
| COc1ccc(-c2cc(C)no2)cc1S(=O)(=O)Nc1ccc(C)c(C)c1 | 7.94 | 7.94 | > 100 | 15.8 | 5.01 | 5.01 | 2.51 | 20 | 15.8 | 2 | > 50.1 | 20 |
| COc1ccc(-c2cnc(C)o2)cc1S(=O)(=O)Nc1ccc(C)cc1C | 3.98 | 3.16 | > 100 | > 50.1 | 2.82 | 3.16 | 3.16 | 31.6 | 25.1 | 2.51 | > 50.1 | 6.31 |
| CNc1nc(C)nc(N2CCc3cc(C(=O)NCc4ccc(-c5cc[nH]n5)cc4Cl)ccc32)n1 | 2.51 | > 50.1 | > 100 | 20 | > 50.1 | > 50.1 | 0.316 | 10 | 5.01 | 0.398 | > 50.1 | 12.6 |
